Experimental data: ChEMBL document CHEMBL4138163, “DMXAA-pyranoxanthone hybrids enhance inhibition activities against human cancer cells with multi-target functions” (Eur J Med Chem, 2018)
Calls of active or inactive are those of the source. No cut-off for these calls is given here.

Tests used:
MDA-MB-231 [1] = test: Antiproliferative activity against human MDA-MB-231 cells after 24 hrs by MTT assay; assay type: functional, cell-based; details: MDA-MB-231, 24 h
HepG2 [2] = test: Antiproliferative activity against human HepG2 cells after 24 hrs by MTT assay; assay type: functional, cell-based; details: HepG2, 24 h
MCF7 [3] = test: Antiproliferative activity against human MCF7 cells after 24 hrs by MTT assay; assay type: functional, cell-based; details: MCF7, 24 h
K562 [4] = test: Antiproliferative activity against human K562 cells after 24 hrs by MTT assay; assay type: functional, cell-based; details: K562, 24 h
[5] = molecular target: T1, Tumour suppressor p53/oncoprotein Mdm2 (Homo sapiens) (UniProt P04637+Q00987); test: Inhibition of MDM2/p53 interaction in human HepG2 cells assessed as increase in p53 to MDM2 ratio at 0.2 uM after 24 hrs by Western blot method (reference value: 0.083); assay type: cell-based
T1 sequence (P04637 whole entry, looked up): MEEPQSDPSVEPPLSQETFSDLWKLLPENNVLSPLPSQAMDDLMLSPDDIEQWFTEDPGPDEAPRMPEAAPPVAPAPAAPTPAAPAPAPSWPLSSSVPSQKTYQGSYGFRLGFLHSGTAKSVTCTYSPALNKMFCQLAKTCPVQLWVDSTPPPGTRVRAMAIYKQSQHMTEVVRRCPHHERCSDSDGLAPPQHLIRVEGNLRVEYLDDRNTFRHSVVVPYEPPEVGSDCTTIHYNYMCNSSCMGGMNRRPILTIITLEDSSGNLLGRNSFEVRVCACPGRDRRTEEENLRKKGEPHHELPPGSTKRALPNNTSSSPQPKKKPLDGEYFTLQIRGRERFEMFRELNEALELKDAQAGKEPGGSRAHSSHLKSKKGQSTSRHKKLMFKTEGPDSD
T1 sequence (Q00987 whole entry, looked up): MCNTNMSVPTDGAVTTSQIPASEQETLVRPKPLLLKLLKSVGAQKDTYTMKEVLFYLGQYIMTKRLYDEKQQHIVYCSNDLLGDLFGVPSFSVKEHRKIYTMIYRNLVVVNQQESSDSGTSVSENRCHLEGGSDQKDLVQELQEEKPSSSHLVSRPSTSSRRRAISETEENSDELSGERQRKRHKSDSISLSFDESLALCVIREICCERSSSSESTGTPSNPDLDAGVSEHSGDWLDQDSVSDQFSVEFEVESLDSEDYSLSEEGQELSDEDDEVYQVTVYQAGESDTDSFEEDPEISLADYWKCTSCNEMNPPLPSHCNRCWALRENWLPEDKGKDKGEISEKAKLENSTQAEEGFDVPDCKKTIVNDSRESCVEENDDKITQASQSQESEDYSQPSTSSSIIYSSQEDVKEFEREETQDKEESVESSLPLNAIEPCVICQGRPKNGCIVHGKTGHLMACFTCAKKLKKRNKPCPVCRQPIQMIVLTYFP

HepG2 [6] = test: Induction of apoptosis in human HepG2 cells assessed as increase in cleaved caspase-3 levels at 0.2 uM after 24 hrs by Western blot method; assay type: functional, cell-based
NIH3T3 [7] = test: Antiproliferative activity against mouse NIH/3T3 cells after 24 hrs by MTT assay; assay type: cell-based; details: mouse, nih3t3, 24 h
HepG2 [8] = test: Induction of apoptosis in human HepG2 cells assessed as increase in cleaved caspase-9 levels at 0.2 uM after 24 hrs by Western blot method; assay type: functional, cell-based
L02 [9] = test: Antiproliferative activity against human HL-7702 cells after 24 hrs by MTT assay; assay type: functional, cell-based; details: L02, 24 h
HepG2 [10] = test: Cell cycle arrest in human HepG2 cells assessed as accumulation at S phase at 0.2 uM after 28 hrs by propidium iodide staining-based flow cytometric method relative to control
HepG2 [11] = test: Induction of apoptosis in human HepG2 cells assessed as ratio of Bax/Bcl-2 at 0.2 uM after 24 hrs by Western blot method (reference value: 0.23); assay type: functional
[12] = Selectivity ratio of IC50 for human HL-7702 cells to IC50 for human HepG2 cells; assay type: functional
HepG2 [13] = test: Induction of apoptosis in human HepG2 cells assessed as increase in cleaved PARP levels at 0.2 uM after 24 hrs by Western blot method; assay type: functional, cell-based
L02 [14] = test: Antiproliferative activity against human HL-7702 cells after 48 hrs by MTT assay; assay type: functional, cell-based; details: L02, 48 h
NIH3T3 [15] = test: Antiproliferative activity against mouse NIH/3T3 cells after 48 hrs by MTT assay; assay type: cell-based; details: nih3t3, 48 h
HepG2 [16] = test: Induction of apoptosis in human HepG2 cells assessed as late apoptotic cells at 0.2 uM after 24 hrs by annexin-V/propidium iodide staining-based flow cytometric method relative to control; assay type: functional
HepG2 [17] = test: Induction of apoptosis in human HepG2 cells assessed as upregulation of Bid expression at 0.2 uM after 24 hrs by Western blot method; assay type: functional, cell-based
HepG2 [18] = test: Induction of apoptosis in human HepG2 cells assessed as downregulation of Bcl-xL expression at 0.2 uM after 24 hrs by Western blot method; assay type: functional, cell-based
[19] = Half life in cell culture medium at 10 uM by HPLC method; assay type: physicochemical
HepG2 [20] = test: Induction of apoptosis in human HepG2 cells assessed as early apoptotic cells at 0.2 uM after 24 hrs by annexin-V/propidium iodide staining-based flow cytometric method relative to control; assay type: functional
[21] = Half life in Kunming mouse plasma at 10 uM by HPLC method; assay type: ADME, cell-free
HepG2 [22] = test: Induction of apoptosis in human HepG2 cells assessed as increase in cleaved caspase-3 levels co-treated with DMXAA at 1:1 molar ratio after 24 hrs by Western blot method; assay type: functional, cell-based
HepG2 [23] = test: Induction of apoptosis in human HepG2 cells assessed as downregulation of Bcl-xL expression co-treated with DMXAA at 1:1 molar ratio after 24 hrs by Western blot method; assay type: functional, cell-based
MDA-MB-231 [24] = test: Antiproliferative activity against human MDA-MB-231 cells co-treated with DMXAA at 1:1 molar ratio after 24 hrs by MTT assay; assay type: functional, cell-based; details: MDA-MB-231, 24 h
HepG2 [25] = test: Antiproliferative activity against human HepG2 cells co-treated with DMXAA at 1:1 molar ratio after 24 hrs by MTT assay; assay type: functional, cell-based; details: HepG2, 24 h
HepG2 [26] = test: Induction of apoptosis in human HepG2 cells assessed as late apoptotic cells co-treated with pyranoxanthone at 1:1 molar ratio after 24 hrs by annexin-V/propidium iodide staining-based flow cytometric method relative to control; assay type: functional
HepG2 [27] = test: Induction of apoptosis in human HepG2 cells assessed as total apoptosis rate at 0.2 uM after 24 hrs by annexin-V/propidium iodide staining-based flow cytometric method relative to control; assay type: functional
K562 [28] = test: Antiproliferative activity against human K562 cells co-treated with DMXAA at 1:1 molar ratio after 24 hrs by MTT assay; assay type: functional, cell-based; details: K562, 24 h
HepG2 [29] = test: Induction of apoptosis in human HepG2 cells assessed as ratio of Bax/Bcl-2 co-treated with DMXAA at 1:1 molar ratio after 24 hrs by Western blot method (reference value: 0.23); assay type: functional
HepG2 [30] = test: Cell cycle arrest in human HepG2 cells assessed as accumulation at S phase co-treated with DMXAA at 1:1 molar ratio after 28 hrs by propidium iodide staining-based flow cytometric method
HepG2 [31] = test: Induction of apoptosis in human HepG2 cells assessed as increase in cleaved caspase-9 levels co-treated with DMXAA at 1:1 molar ratio after 24 hrs by Western blot method; assay type: functional, cell-based
HepG2 [32] = test: Induction of apoptosis in human HepG2 cells assessed as late apoptotic cells co-treated with DMXAA at 1:1 molar ratio after 24 hrs by annexin-V/propidium iodide staining-based flow cytometric method relative to control; assay type: functional
HepG2 [33] = test: Induction of apoptosis in human HepG2 cells assessed as increase in cleaved PARP levels co-treated with DMXAA at 1:1 molar ratio after 24 hrs by Western blot method; assay type: functional, cell-based
MCF7 [34] = test: Antiproliferative activity against human MCF7 cells co-treated with DMXAA at 1:1 molar ratio after 24 hrs by MTT assay; assay type: functional, cell-based; details: MCF7, 24 h
HepG2 [35] = test: Induction of apoptosis in human HepG2 cells assessed as upregulation of Bid expression co-treated with DMXAA at 1:1 molar ratio after 24 hrs by Western blot method; assay type: functional, cell-based
[36] = molecular target: T1, Tumour suppressor p53/oncoprotein Mdm2 (Homo sapiens); test: Inhibition of MDM2/p53 interaction in human HepG2 cells assessed as increase in p53 to MDM2 ratio co-treated with DMXAA at 1:1 molar ratio after 24 hrs by Western blot method (reference value: 0.083); assay type: cell-based
HepG2 [37] = test: Induction of apoptosis in human HepG2 cells assessed as necrotic cells at 0.2 uM after 24 hrs by annexin-V/propidium iodide staining-based flow cytometric method relative to control; assay type: functional

SMILES	IC50 (MDA-MB-231 [1])	IC50 (HepG2 [2])	IC50 (MCF7 [3])	IC50 (K562 [4])	fold change (FC) [5]	Activity (HepG2 [6])	Activity (HepG2 [8])	Activity (HepG2 [10])	Ratio (HepG2 [11])	Activity (HepG2 [13])	Activity (HepG2 [17])	Activity (HepG2 [18])	other results
Cc1ccc2c(=O)c3cccc(CC(=O)OCCCCCOc4c5c(cc6c(=O)c7ccccc7oc46)CCC(C)(C)O5)c3oc2c1C	11.2 µM	1.53 µM	8.72 µM	15 µM									
Cc1ccc2c(=O)c3cccc(CC(=O)OCCCCCCOc4c5c(cc6c(=O)c7ccccc7oc46)CCC(C)(C)O5)c3oc2c1C	1.13 µM	0.216 µM	0.534 µM	9.13 µM	0.81	Active	Active	90%	0.87	Active	Active	Active	Activity (NIH3T3 [7]): Non-Toxic; IC50 (L02 [9]): 378 to 452 µM; Ratio IC50 [12]: 2092; IC50 (L02 [14]): 293 to 352 µM; Activity (NIH3T3 [15]): Non-Toxic; Activity (HepG2 [16]): 42%; half-life at 10 µM [19]: 24.8 h; Activity (HepG2 [20]): 38%; half-life at 10 µM [21]: 4.2 h
CC1(C)CCc2cc3c(=O)c4ccccc4oc3c(O)c2O1 [DIHYDRO-12-HYDROXY-2,2-DIMETHYL-2H,6H-PYRANO[3,2-B]XANTHEN-6-ONE]	59.3 µM	40.3 µM	102 µM	27.8 µM	0.19	Active	Active	Active	0.36	Active	Active	Active	Activity (HepG2 [22]): Active; Activity (HepG2 [23]): Active; IC50 (MDA-MB-231 [24]): 12.1 µM; IC50 (HepG2 [25]): 21.2 µM; Activity (HepG2 [26]): 46%; Activity (HepG2 [27]): <10%; IC50 (K562 [28]): 19.1 µM; Ratio (HepG2 [29]): 0.58; Activity (HepG2 [30]): Active; Activity (HepG2 [31]): Active; Activity (HepG2 [32]): 46%; Activity (HepG2 [33]): Active; IC50 (MCF7 [34]): 11.9 µM; Activity (HepG2 [35]): Active; fold change (FC) [36]: 0.67; Activity (HepG2 [37]): <10%
